Measured values from patent publication US4535161A, “Benzoquinolizine derivatives” (Daiichi Seiyaku Co., Ltd., priority 1982, dated 1985).
Converted amounts (≈) assume the structure as drawn. Structures can show the parent of a compound that is named as a salt. Where two headings read alike, the source gives them in different places.

Columns and labels:
[1] = Acute toxicity (LD50) in mice (i.v.); settings: mouse, in vivo, iv
E. coli, NIHJ = experiment: Antibacterial activity (MIC), Table 1: E. coli, NIHJ; format: cell-based; settings: Escherichia coli, Mueller-Hinton Broth, 10^6/ml, 37° C., 18 hours
Procedure: (§1) *Determined by the standard method of the Japan Society of Chemoterapy:
(§2) (MuellerHinton Broth medium), 10^6 /ml of bacteria were seeded and
(§3) incubated at 37° C. for 18 hours.

Sh. flexneri, 2a, 5503 = experiment: Antibacterial activity (MIC), Table 1: Sh. flexneri, 2a, 5503; format: cell-based; settings: Shigella flexneri, Mueller-Hinton Broth, 10^6/ml, 37° C., 18 hours
Procedure: as §1, §2, §3

Pr. vulgaris, 08602 = experiment: Antibacterial activity (MIC), Table 1: Pr. vulgaris, 08602; format: cell-based; settings: Proteus vulgaris, Mueller-Hinton Broth, 10^6/ml, 37° C., 18 hours
Procedure: as §1, §2, §3

Pr. mirabilis, IFO-3849 = experiment: Antibacterial activity (MIC), Table 1: Pr. mirabilis, IFO-3849; format: cell-based; settings: Proteus mirabilis, IFO3849, Mueller-Hinton Broth, 10^6/ml, 37° C., 18 hours
Procedure: as §1, §2, §3

K. pneumoniae, type 1 = experiment: Antibacterial activity (MIC), Table 1: K. pneumoniae, type 1; format: cell-based; settings: Klebsiella pneumoniae, TYPE1, Mueller-Hinton Broth, 10^6/ml, 37° C., 18 hours
Procedure: as §1, §2, §3

Ent. cloacae, 03400 = experiment: Antibacterial activity (MIC), Table 1: Ent. cloacae, 03400; format: cell-based
Procedure: as §1, §2, §3

Ser. marcescens, 10104 = experiment: Antibacterial activity (MIC), Table 1: Ser. marcescens, 10104; format: cell-based; settings: Serratia marcescens, Mueller-Hinton Broth, 10^6/ml, 37° C., 18 hours
Procedure: as §1, §2, §3

Ps. aeruginosa, 32104 = experiment: Antibacterial activity (MIC), Table 1: Ps. aeruginosa, 32104; format: cell-based; settings: Pseudomonas aeruginosa, Mueller-Hinton Broth, 10^6/ml, 37° C., 18 hours
Procedure: as §1, §2, §3

Ps. aeruginosa, 32233 = experiment: Antibacterial activity (MIC), Table 1: Ps. aeruginosa, 32233; format: cell-based; settings: Pseudomonas aeruginosa, Mueller-Hinton Broth, 10^6/ml, 37° C., 18 hours
Procedure: as §1, §2, §3

Ps. aeruginosa, 32234 = experiment: Antibacterial activity (MIC), Table 1: Ps. aeruginosa, 32234; format: cell-based; settings: Pseudomonas aeruginosa, Mueller-Hinton Broth, 10^6/ml, 37° C., 18 hours
Procedure: as §1, §2, §3

Ps. aeruginosa, 32121 = experiment: Antibacterial activity (MIC), Table 1: Ps. aeruginosa, 32121; format: cell-based; settings: Pseudomonas aeruginosa, Mueller-Hinton Broth, 10^6/ml, 37° C., 18 hours
Procedure: as §1, §2, §3

Ps. aeruginosa, 32122 = experiment: Antibacterial activity (MIC), Table 1: Ps. aeruginosa, 32122; format: cell-based; settings: Pseudomonas aeruginosa, Mueller-Hinton Broth, 10^6/ml, 37° C., 18 hours
Procedure: as §1, §2, §3

S. aureus, 209 P = experiment: Antibacterial activity (MIC), Table 1: S. aureus, 209 P; format: cell-based; settings: Staphylococcus aureus, Mueller-Hinton Broth, 10^6/ml, 37° C., 18 hours
Procedure: as §1, §2, §3

S. epidermidis, 56500 = experiment: Antibacterial activity (MIC), Table 1: S. epidermidis, 56500; format: cell-based; settings: Staphylococcus epidermidis, Mueller-Hinton Broth, 10^6/ml, 37° C., 18 hours
Procedure: as §1, §2, §3

Str. pyogenes, G-36 = experiment: Antibacterial activity (MIC), Table 1: Str. pyogenes, G-36; format: cell-based; settings: Streptococcus pyogenes, G36, Mueller-Hinton Broth, 10^6/ml, 37° C., 18 hours
Procedure: as §1, §2, §3

[2] = test system: Str. faecalis, ATCC-19433; experiment: Antibacterial activity (MIC), Table 1: Str. faecalis, ATCC-19433; format: cell-based; settings: Enterococcus faecalis, ATCC19433, Mueller-Hinton Broth, 10^6/ml, 37° C., 18 hours
Procedure: as §1, §2, §3

B. subtilis, ATCC-6633 = experiment: Antibacterial activity (MIC), Table 1: B. subtilis, ATCC-6633; format: cell-based; settings: Bacillus subtilis, ATCC6633, Mueller-Hinton Broth, 10^6/ml, 37° C., 18 hours
Procedure: as §1, §2, §3

Pseudomonas aeruginosa = experiment: Antibacterial activity against Pseudomonas aeruginosa (summary of Table 1); format: cell-based; settings: in words
Procedure: as §1, §2, §3

Gram-positive bacteria = experiment: Antibacterial activity against Gram-positive bacteria (summary of Table 1); format: cell-based; settings: in words
Procedure: as §1, §2, §3

SMILES	MIC (E. coli, NIHJ)	MIC (Sh. flexneri, 2a, 5503)	MIC (Pr. vulgaris, 08602)	MIC (Pr. mirabilis, IFO-3849)	MIC (K. pneumoniae, type 1)	MIC (Ser. marcescens, 10104)	MIC (Ps. aeruginosa, 32104)	MIC (Ps. aeruginosa, 32233)	MIC (Ps. aeruginosa, 32234)	MIC (Ps. aeruginosa, 32121)	MIC (Ps. aeruginosa, 32122)	MIC (S. aureus, 209 P)	MIC (S. epidermidis, 56500)	MIC (Str. pyogenes, G-36)	MIC [2]	MIC (B. subtilis, ATCC-6633)	further results
C=C1CCc2c(N3CCC(N)C3)c(F)cc3c(=O)c(C(=O)O)cn1c23 (stereo not shown) [Ib, hydrochloric acid addition salt, 8-(3-amino--pyrrolidinyl)-9-fluoro-5-methylene-6,7-dihydro-1-oxo-1H,5H-benzo(ij)quinolizine-2-carboxylic acid]	–	–	–	–	–	–	–	–	–	–	–	–	–	–	–	–	LD50 [1]: 252 mg/kg
C=C1CCc2c(N3CCC(N)C3)c(F)cc3c(=O)c(C(=O)O)cn1c23 (stereo not shown) [Ib, 8-(3-amino-1-pyrrolidinyl)-9-fluoro-5-methylene-1-oxo-6,7-dihydro-1H,5H-benzo(ij)quinolizine-2-carboxylic acid]	0.0125 µg/mL (≈ 0.0364 µM)	0.0125 µg/mL (≈ 0.0364 µM)	0.025 µg/mL (≈ 0.0728 µM)	0.025 µg/mL (≈ 0.0728 µM)	0.05 µg/mL (≈ 0.146 µM)	0.05 µg/mL (≈ 0.146 µM)	0.05 µg/mL (≈ 0.146 µM)	0.1 µg/mL (≈ 0.291 µM)	0.05 µg/mL (≈ 0.146 µM)	0.025 µg/mL (≈ 0.0728 µM)	0.1 µg/mL (≈ 0.291 µM)	0.1 µg/mL (≈ 0.291 µM)	0.19 µg/mL (≈ 0.553 µM)	0.39 µg/mL (≈ 1.14 µM)	0.39 µg/mL (≈ 1.14 µM)	0.025 µg/mL (≈ 0.0728 µM)	MIC (Ent. cloacae, 03400; Enterobacter cloacae, 03400, 18 h): 0.0125 µg/mL (≈ 0.0364 µM); antibacterial activity against Pseudomonas aeruginosa (Pseudomonas aeruginosa): very strong antibacterial activity
C=C1CCc2c(N3CCC(O)C3)c(F)cc3c(=O)c(C(=O)O)cn1c23 (stereo not shown) [Ia, 9-fluoro-8-(3-hydroxy-1-pyrrolidinyl)-5-methylene-1-oxo-6,7-dihydro-1H,5H-benzo(ij)quinolizine-2-carboxylic acid]	0.0125 µg/mL (≈ 0.0363 µM)	0.0125 µg/mL (≈ 0.0363 µM)	0.05 µg/mL (≈ 0.145 µM)	0.1 µg/mL (≈ 0.29 µM)	0.1 µg/mL (≈ 0.29 µM)	0.1 µg/mL (≈ 0.29 µM)	0.31 µg/mL (≈ 0.9 µM)	0.78 µg/mL (≈ 2.27 µM)	0.39 µg/mL (≈ 1.13 µM)	0.1 µg/mL (≈ 0.29 µM)	0.39 µg/mL (≈ 1.13 µM)	0.05 µg/mL (≈ 0.145 µM)	0.1 µg/mL (≈ 0.29 µM)	0.39 µg/mL (≈ 1.13 µM)	0.39 µg/mL (≈ 1.13 µM)	≤ 0.0063 µg/mL	MIC (Ent. cloacae, 03400; Enterobacter cloacae, Ent. cloacae, 03400, Mueller-Hinton Broth, 10^6/ml, 37° C., 18 hours, read-out: MIC): 0.05 µg/mL (≈ 0.145 µM); antibacterial activity against Gram-positive bacteria (Gram-positive bacteria): very strong antibacterial activity
